Experimental findings from ChEMBL document CHEMBL1155406, “Synthesis and chain-dependent antifungal activity of long-chain 2H-azirine-carboxylate esters related to dysidazirine” (Bioorg Med Chem Lett, 2010) are described below.

Calls of active or inactive are those of the source. The calls are words filed in the database; no cut-off is given here.

The test system of one data set is Cryptococcus neoformans. The experiment in a line: Antifungal activity against Cryptococcus neoformans var. grubii by broth microdilution method. It counts as functional, organism-based.
Settings: not given
For orientation: Dilution methods test growth across graded concentrations, often in twofold steps.
Take `CCCCCCCCCCCCCC#CC1=N[C@H]1C(=O)OC`: the result was Active.
In the case of `CCCCCCCCCC/C=C\C1=N[C@H]1C(=O)OC`, the result was Active.

The subject of the next data set is HCT-116. The experiment in a line: Cytotoxicity against human HCT116 cells.
Settings: not given
It counts as cell-based.
Take `COC(=O)[C@H]1N=C1/C=C\CCCCCCCCCC=C(Br)Br`: the outcome was Active.
On the same count and under the same terms, with `COC(=O)[C@H]1N=C1/C=C/CCCCCCCCC/C=C(/Cl)Br` the entry was “Active”; with `COC(=O)[C@H]1N=C1/C=C\CCCCCCCCC/C=C(/Cl)Br`, “Active”.
As to `COC(=O)[C@H]1N=C1/C=C/CCCCCCCCCC=C(Cl)Cl`, the result was Active.
The same measure, in the same setting: with `COC(=O)[C@H]1N=C1/C=C/CCCCCCCCCC=C(Br)Br` the entry was “Active”.

Another data set has as its system Candida albicans. Nature of the data set: Antifungal activity against fluconazole-resistant Candida albicans UCD-FRI at 64 ug by broth microdilution method. In kind it is functional, organism-based.
Settings: not given
As for `COC(=O)[C@H]1N=C1/C=C\CCCCCCCCCC=C(Br)Br`, the outcome was inactive.
On the same count and under the same terms, next, `COC(=O)[C@H]1N=C1/C=C/CCCCCCCCC/C=C(/Cl)Br`: “inactive”; `COC(=O)[C@H]1N=C1/C=C\CCCCCCCCC/C=C(/Cl)Br`: “inactive”; `COC(=O)[C@H]1N=C1/C=C/CCCCCCCCCC=C(Cl)Cl`: “inactive”.
On the same count and under the same terms, next, `CCCCCCCCCCCCCCCC1=N[C@H]1C(=O)OC`: “inactive”; `COC(=O)[C@@H]1N=C1/C=C\CCCCCCCCCCCC(C)(C)C`: “inactive”.
On the same count and under the same terms, with `COC(=O)[C@H]1N=C1/C=C/CCCCCCCCCC=C(Br)Br` the entry was “inactive”.

A further data set has as its system Cryptococcus gattii. The experiment in a line: Antifungal activity against Cryptococcus neoformans var. gatti at 64 ug by broth microdilution method. To be noted: Cryptococcus bacillisporus. In kind it is functional, organism-based.
With `COC(=O)[C@H]1N=C1/C=C\CCCCCCCCCC=C(Br)Br`, the result was inactive.
Still for that read-out and setting: with `COC(=O)[C@H]1N=C1/C=C/CCCCCCCCC/C=C(/Cl)Br` the entry was “inactive”.
The same measure, in the same setting: next, `COC(=O)[C@H]1N=C1/C=C\CCCCCCCCC/C=C(/Cl)Br`: “inactive”.
Same read-out and setting: with `COC(=O)[C@H]1N=C1/C=C/CCCCCCCCCC=C(Cl)Cl` the entry was “inactive”; with `CCCCCCCCCCCCCCCC1=N[C@H]1C(=O)OC`, “inactive”.
On to `COC(=O)[C@@H]1N=C1/C=C\CCCCCCCCCCCC(C)(C)C`, for which the outcome was inactive.
Same read-out and setting: with `COC(=O)[C@H]1N=C1/C=C/CCCCCCCCCC=C(Br)Br` the entry was “inactive”.

For another data set, the system named is Pichia kudriavzevii. Nature of the data set: Antifungal activity against fluconazole-resistant Candida krusei by broth microdilution method.
Settings: not given
In kind it is functional, organism-based.
As for `CCCCCCCCCCCCCC#CC1=N[C@H]1C(=O)OC`, the outcome was Active.
On the same count and under the same terms, next, `CCCCCCCCCC/C=C\C1=N[C@H]1C(=O)OC`: “Active”.

A further data set relates to Pichia kudriavzevii. The experiment in a line: Antifungal activity against fluconazole-resistant Candida krusei at 64 ug by broth microdilution method. It counts as functional, organism-based.
Settings: not given
Take `COC(=O)[C@H]1N=C1/C=C\CCCCCCCCCC=C(Br)Br`: the outcome was inactive.
On the same count and under the same terms, next, `COC(=O)[C@H]1N=C1/C=C/CCCCCCCCC/C=C(/Cl)Br`: “inactive”.
Same read-out and setting: next, `COC(=O)[C@H]1N=C1/C=C\CCCCCCCCC/C=C(/Cl)Br`: “inactive”; `COC(=O)[C@H]1N=C1/C=C/CCCCCCCCCC=C(Cl)Cl`: “inactive”.
In the case of `CCCCCCCCCCCCCCCC1=N[C@H]1C(=O)OC`, the outcome was inactive.
Still for that read-out and setting: next, `COC(=O)[C@@H]1N=C1/C=C\CCCCCCCCCCCC(C)(C)C`: “inactive”; `COC(=O)[C@H]1N=C1/C=C/CCCCCCCCCC=C(Br)Br`: “inactive”.

A further data set concerns Candida albicans. The experiment in a line: Antifungal activity against Candida albicans ATCC 14503 by broth microdilution method. In kind it is functional, organism-based.
Settings: not given
Regarding `CCCCCCCCCCCCCC#CC1=N[C@H]1C(=O)OC`, the result was Active.
Take `CCCCCCCCCC/C=C\C1=N[C@H]1C(=O)OC`: the outcome was Active.

A further data set deals with Cryptococcus gattii. The experiment in a line: Antifungal activity against Cryptococcus neoformans var. gatti by broth microdilution method. In kind it is functional, organism-based. As to conditions: Cryptococcus bacillisporus.
Consider `CCCCCCCCCCCCCC#CC1=N[C@H]1C(=O)OC`, for which the result was Active.
Take `CCCCCCCCCC/C=C\C1=N[C@H]1C(=O)OC`: the outcome was Active.

For a further data set, the system named is Candida albicans. The experiment in a line: Antifungal activity against fluconazole-resistant Candida albicans 96-489 by broth microdilution method. In kind it is functional, organism-based.
Settings: not given
For the molecule `CCCCCCCCCCCCCC#CC1=N[C@H]1C(=O)OC`, the result was Active.
Regarding `CCCCCCCCCC/C=C\C1=N[C@H]1C(=O)OC`, the outcome was Active.

A further data set concerns Candida albicans. The experiment in a line: Antifungal activity against fluconazole-resistant Candida albicans 96-489 at 64 ug by broth microdilution method. It counts as functional, organism-based.
Settings: not given
As for `COC(=O)[C@H]1N=C1/C=C\CCCCCCCCCC=C(Br)Br`, the outcome was inactive.
In the case of `COC(=O)[C@H]1N=C1/C=C/CCCCCCCCC/C=C(/Cl)Br`, the outcome was inactive.
Same read-out and setting: next, `COC(=O)[C@H]1N=C1/C=C\CCCCCCCCC/C=C(/Cl)Br`: “inactive”; `COC(=O)[C@H]1N=C1/C=C/CCCCCCCCCC=C(Cl)Cl`: “inactive”.
For the molecule `CCCCCCCCCCCCCCCC1=N[C@H]1C(=O)OC`, the result was inactive.
The same measure, in the same setting: with `COC(=O)[C@@H]1N=C1/C=C\CCCCCCCCCCCC(C)(C)C` the entry was “inactive”.
Same read-out and setting: next, `COC(=O)[C@H]1N=C1/C=C/CCCCCCCCCC=C(Br)Br`: “inactive”.

The test system of the next data set is Candida albicans. The experiment in a line: Antifungal activity against fluconazole-resistant Candida albicans UCD-FRI by broth microdilution method. In kind it is functional, organism-based.
Settings: not given
With `CCCCCCCCCCCCCC#CC1=N[C@H]1C(=O)OC`, the result was Active.
Same read-out and setting: next, `CCCCC/C=C\C1=N[C@H]1C(=O)OC`: “inactive”; `CCCCCCCCCC/C=C\C1=N[C@H]1C(=O)OC`: “Active”.

The test system of a further data set is Candida albicans. The experiment in a line: Antifungal activity against Candida albicans ATCC 14503 at 64 ug by broth microdilution method. In kind it is functional, organism-based.
Settings: not given
On to `COC(=O)[C@H]1N=C1/C=C\CCCCCCCCCC=C(Br)Br`, for which the result was inactive.
Still for that read-out and setting: next, `COC(=O)[C@H]1N=C1/C=C/CCCCCCCCC/C=C(/Cl)Br`: “inactive”; `COC(=O)[C@H]1N=C1/C=C\CCCCCCCCC/C=C(/Cl)Br`: “inactive”; `COC(=O)[C@H]1N=C1/C=C/CCCCCCCCCC=C(Cl)Cl`: “inactive”.
Still for that read-out and setting: with `CCCCCCCCCCCCCCCC1=N[C@H]1C(=O)OC` the entry was “inactive”.
Same read-out and setting: with `COC(=O)[C@@H]1N=C1/C=C\CCCCCCCCCCCC(C)(C)C` the entry was “inactive”; with `COC(=O)[C@H]1N=C1/C=C/CCCCCCCCCC=C(Br)Br`, “inactive”.

A further data set relates to Nakaseomyces glabratus. The experiment in a line: Antifungal activity against Candida glabrata at 64 ug by broth microdilution method.
Settings: not given
It counts as functional, organism-based.
Regarding `COC(=O)[C@H]1N=C1/C=C\CCCCCCCCCC=C(Br)Br`, the result was inactive.
The same measure, in the same setting: next, `COC(=O)[C@H]1N=C1/C=C/CCCCCCCCC/C=C(/Cl)Br`: “inactive”.
On the same count and under the same terms, with `COC(=O)[C@H]1N=C1/C=C\CCCCCCCCC/C=C(/Cl)Br` the entry was “inactive”; with `COC(=O)[C@H]1N=C1/C=C/CCCCCCCCCC=C(Cl)Cl`, “inactive”.
Same read-out and setting: with `CCCCCCCCCCCCCCCC1=N[C@H]1C(=O)OC` the entry was “inactive”.
Take `COC(=O)[C@@H]1N=C1/C=C\CCCCCCCCCCCC(C)(C)C`: the outcome was inactive.
Turning to `COC(=O)[C@H]1N=C1/C=C/CCCCCCCCCC=C(Br)Br`, the result was inactive.

For another data set, the system named is Nakaseomyces glabratus. Nature of the data set: Antifungal activity against Candida glabrata by broth microdilution method. It counts as functional.
Settings: not given
For `CCCCCCCCCCCCCC#CC1=N[C@H]1C(=O)OC`, the outcome was Active.
Turning to `CCCCCCCCCCCCC/C=C/[C@@H](O)[C@@H](N)CO` [SPHINGOSINE], the Activity is 30 µg/mL.
Same read-out and setting: with `CCCCCCCCCC/C=C\C1=N[C@H]1C(=O)OC` the entry was “Active”.

A further data set concerns Cryptococcus neoformans. The experiment in a line: Antifungal activity against Cryptococcus neoformans var. grubii at 64 ug by broth microdilution method.
Settings: not given
In kind it is functional, organism-based.
With `COC(=O)[C@H]1N=C1/C=C\CCCCCCCCCC=C(Br)Br`, the outcome was inactive.
On the same count and under the same terms, next, `COC(=O)[C@H]1N=C1/C=C/CCCCCCCCC/C=C(/Cl)Br`: “inactive”.
Still for that read-out and setting: next, `COC(=O)[C@H]1N=C1/C=C\CCCCCCCCC/C=C(/Cl)Br`: “inactive”; `COC(=O)[C@H]1N=C1/C=C/CCCCCCCCCC=C(Cl)Cl`: “inactive”; `CCCCCCCCCCCCCCCC1=N[C@H]1C(=O)OC`: “inactive”.
Take `COC(=O)[C@@H]1N=C1/C=C\CCCCCCCCCCCC(C)(C)C`: the outcome was inactive.
Same read-out and setting: with `COC(=O)[C@H]1N=C1/C=C/CCCCCCCCCC=C(Br)Br` the entry was “inactive”.
